Laboratory results reported in patent US20100304380A1, “Quantitative DNA Methylation Imaging of Cells and Tissues” (EPILUMINA, INC., priority 2009, published 2010).

Key:
[1] = test system: TtT-GF mouse folliculostellate pituitary cell nuclei; experiment: Quantitative DNA Methylation Imaging of nuclear MeC/DAPI colocalization; format: cell-based; details: 100 nM, 24 hours, TtT-GF cells in culture; selected cells 1-5; FIG. 4
Source text: Therefore, we used the genome and its 3D organization as an indicator to evaluate the effect of demethylating drugs on cancer cells in situ. Our approach provides a statistical measurement on the two classes of DNAs (MeC and DAPI-positive gDNA) as nuclear targets. The algorithm compares the relative distribution of signals derived from these two targets (from two color-channels), projects them onto scatter plots (FIGS. 3 and 4), and then measures the degree of similarities between the plotted signal distributions of cells within a population. This method offers a way to evaluate cellular response to external factors such as drugs and changes in culture conditions via dissimilarity assessment of relevant cellular structures. […] This method considers the strength of statistical evaluation of intra-nuclear MeC/DAPI patterns, especially valuable when cell population homogeneity is difficult to be assessed due to lack of standardized reference and sample size. FIG. 1 is a workflow of Quantitative DNA Methylation (MeC) Imaging comprised of three steps: (1) immunofluorescence with antibodies against MeC (and against a cell-type or cell-characteristic marker) and DNA counterstaining with DAPI, (2) high-resolution fluorescence microscopy to collect 2D optical sections of the cells, and (3) 3D fluorescence image analysis. […]

[2] = test system: AtT20 mouse pituitary tumor cells; experiment: Quantitative DNA Methylation (MeC) Imaging of nuclear MeC/DAPI colocalization; format: cell-based; details: treated AtT20 cells in culture versus untreated cells (tight colocalization); FIG. 3
Source text: Approximately 55% of the human genome is comprised of heterochromatin. […] Therefore, we used the genome and its 3D organization as an indicator to evaluate the effect of demethylating drugs on cancer cells in situ. Our approach provides a statistical measurement on the two classes of DNAs (MeC and DAPI-positive gDNA) as nuclear targets. The algorithm compares the relative distribution of signals derived from these two targets (from two color-channels), projects them onto scatter plots (FIGS. 3 and 4), and then measures the degree of similarities between the plotted signal distributions of cells within a population. This method offers a way to evaluate cellular response to external factors such as drugs and changes in culture conditions via dissimilarity assessment of relevant cellular structures. […] This method considers the strength of statistical evaluation of intra-nuclear MeC/DAPI patterns, especially valuable when cell population homogeneity is difficult to be assessed due to lack of standardized reference and sample size.
FIG. 1 is a workflow of Quantitative DNA Methylation (MeC) Imaging comprised of three steps: (1) immunofluorescence with antibodies against MeC (and against a cell-type or cell-characteristic marker) and DNA counterstaining with DAPI, (2) high-resolution fluorescence microscopy to collect 2D optical sections of the cells, and (3) 3D fluorescence image analysis. […]

| Structure (SMILES) | response (demethylation) of the cell population, MeC vs heterochromatin/DAPI colocalization [1] | change of nuclear DNA methylation patterns (MeC vs heterochromatin/DAPI colocalization) [2] |
| --- | --- | --- |
| C[C@@H](O)[C@@H]1NC(=O)[C@H](CCCCN)NC(=O)[C@@H](Cc2c[nH]c3ccccc23)NC(=O)[C@H](Cc2ccccc2)NC(=O)[C@@H](NC(=O)[C@H](N)Cc2ccccc2)CSSC[C@@H](C(=O)N[C@H](CO)[C@@H](C)O)NC1=O [octreotide] | diverse response | – |
| Nc1ncn([C@@H]2O[C@H](CO)[C@@H](O)[C@H]2O)c(=O)n1 [5-azacytidine] | – | large foci that are uniquely comprised of three types of signals/genomic loci |
